According to patent US20240374763A1, “DIAGNOSIS AND MONITORING USING EXTRADOMAIN-B FIBRONECTIN TARGETED PROBES” (Case Western Reserve University, priority 2020, published 2024):
No end group written: not given here.

How the values were obtained:
PC3-DR tumors = assay: MRMI with MT218, PC3-DR xenografts; assay type: in vivo, mice; conditions: 0.04 mmol Gd/kg, 20 min post-injection, p=0.07
Text: Xenograft models were established by subcutaneous flank injections in athymic nu/nu mice for the 4 prostate cancer cells and tested with MRMI using 0.04 mmol Gd/kg of MT218.

Hs578T tumors = assay: MRMI-mediated monitoring of therapeutic response, Hs578T tumors; assay type: in vivo, mice; conditions: pretreatment Hs578T tumors, MT218 0.1 mmol/kg, first 30 min
Protocol: The targeted MRI contrast agent ZD2-N3-Gd(HP-DO3A) (MT218) was provided by Molecular Theranostics (Cleveland, OH) and was synthesized. MR images of the mice bearing MDA-MB-231 or Hs578T tumors were acquired on a 3T MRS 3000 scanner (MRS Solutions, Surrey, UK) with a mouse short quad coil. T1-weighted images were acquired following intravenous injection of MT218 at dose of 0.1 mmol/kg using a fast spin echo (FSE) axial sequence with respiratory gating (TR=305 ms, TE=11 ms, FA=90°, FOV=40×40 mm, slice thickness=1 mm, slice number=15, Nav=2, matrix=256×256). Images were acquired before and at 10, 20, and 30 min after injection of MT218. MRMI was performed before the treatment and then at week 6 post-nanoparticle treatments for MDA-MB-231 and Hs578T tumors. MRI data and image processing was conducted using FIJI (FIJI is just ImageJ) software. The contrast-to-noise ratios (CNRs) of tumors were calculated as the difference of the mean tumor intensity and the mean muscle intensity divided by the standard deviation of the noise.

## ZD2-N3-Gd(HP-DO3A) (TVRTSAD; also: conjugated to Gd(HP-DO3A) by click reaction of alkynyl-ZD2 with N3-Gd(HP-DO3A), residue of attachment not given here, Gd complex) [MT218, EDB-FN-targeted MRI contrast agent; ZD2 peptide conjugated to the clinical macrocyclic agent Gd(HP-DO3A)]
PC3-DR tumors
  CNR over the pre-contrast: 1.6 fold
Hs578T tumors
  signal enhancement vs pre-contrast: Strong signal enhancement
